Laboratory results: ChEMBL document CHEMBL4602694, “Suppression of Drug-Resistant Non-Small-Cell Lung Cancer with Inhibitors Targeting Minichromosomal Maintenance Protein” (J Med Chem, 2020)
Activity calls are given as the source filed them. No cut-off for these calls is given here.

Legend:
[1] = molecular target: T1, DNA replication licensing factor MCM6 (Homo sapiens) (UniProt Q14566); test: Induction of ubiquitination of MCM6 in human NCI-H1975 cells incubated for 48 hrs by immunoblot analysis (reference value: 1); type: cell-based
T1 sequence (whole entry): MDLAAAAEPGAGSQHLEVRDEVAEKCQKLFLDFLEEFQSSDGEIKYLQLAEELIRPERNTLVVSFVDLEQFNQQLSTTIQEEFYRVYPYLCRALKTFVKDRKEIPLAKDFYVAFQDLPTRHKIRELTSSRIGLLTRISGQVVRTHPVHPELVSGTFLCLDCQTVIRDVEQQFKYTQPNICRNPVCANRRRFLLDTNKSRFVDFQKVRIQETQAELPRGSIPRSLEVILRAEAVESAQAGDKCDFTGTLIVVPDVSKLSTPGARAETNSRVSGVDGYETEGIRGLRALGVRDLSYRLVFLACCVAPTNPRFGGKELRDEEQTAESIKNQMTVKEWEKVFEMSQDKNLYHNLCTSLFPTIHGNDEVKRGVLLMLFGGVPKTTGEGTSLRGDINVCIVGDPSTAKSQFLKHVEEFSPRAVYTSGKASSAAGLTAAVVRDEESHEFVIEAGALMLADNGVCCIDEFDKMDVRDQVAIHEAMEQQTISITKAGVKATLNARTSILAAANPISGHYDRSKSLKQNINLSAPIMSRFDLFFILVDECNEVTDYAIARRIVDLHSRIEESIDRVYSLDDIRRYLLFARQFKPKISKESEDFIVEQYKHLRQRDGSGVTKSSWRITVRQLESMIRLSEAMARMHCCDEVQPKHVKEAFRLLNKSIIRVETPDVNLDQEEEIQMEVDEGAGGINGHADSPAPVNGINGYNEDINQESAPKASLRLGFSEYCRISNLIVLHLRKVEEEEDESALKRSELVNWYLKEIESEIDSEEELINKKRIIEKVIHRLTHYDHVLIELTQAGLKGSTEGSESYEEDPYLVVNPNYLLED

[2] = molecular target: DNA replication licensing factor MCM7 (Homo sapiens) (UniProt P33993); test: Induction of ubiquitination of MCM7 in human PC9 cells incubated for 24 hrs by immunoblot analysis; type: cell-based; conditions: PC-9
Chain of DNA replication licensing factor MCM7 (Homo sapiens) (P33993 whole entry): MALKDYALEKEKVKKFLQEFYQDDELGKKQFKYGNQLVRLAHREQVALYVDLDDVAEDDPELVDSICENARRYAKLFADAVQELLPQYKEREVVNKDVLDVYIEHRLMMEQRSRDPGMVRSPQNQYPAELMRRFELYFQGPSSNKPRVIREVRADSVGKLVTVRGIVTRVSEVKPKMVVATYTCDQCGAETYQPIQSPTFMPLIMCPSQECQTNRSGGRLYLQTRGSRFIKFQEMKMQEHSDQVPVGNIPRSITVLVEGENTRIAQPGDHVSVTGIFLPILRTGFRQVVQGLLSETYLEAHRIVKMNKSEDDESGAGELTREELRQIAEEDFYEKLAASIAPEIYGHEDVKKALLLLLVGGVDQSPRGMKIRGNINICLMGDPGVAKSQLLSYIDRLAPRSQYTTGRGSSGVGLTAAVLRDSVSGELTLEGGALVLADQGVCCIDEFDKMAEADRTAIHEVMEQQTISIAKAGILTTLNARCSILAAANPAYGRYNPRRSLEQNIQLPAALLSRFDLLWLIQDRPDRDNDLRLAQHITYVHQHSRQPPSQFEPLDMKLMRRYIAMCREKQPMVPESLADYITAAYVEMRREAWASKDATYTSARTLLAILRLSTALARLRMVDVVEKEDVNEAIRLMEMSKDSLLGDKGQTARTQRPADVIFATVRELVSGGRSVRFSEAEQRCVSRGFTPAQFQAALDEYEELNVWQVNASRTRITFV

[3] = Toxicity in athymic nude BALB/c mouse xenografted with human NCI-H1975 cells assessed as effect on serum alanine transaminase at 1 or 4 mg/kg, ip administered for 4 weeks; type: organism-based; conditions: in vivo, 672 h
NCI-H1975 [4] = test: Cell cycle arrest in human NCI-H1975 cells assessed as accumulation in G2/M phase at 140 nM incubated for 72 hrs by propidium iodide base flow cytometry analysis (reference value: 17 %); type: functional
[5] = Toxicity in athymic nude BALB/c mouse xenografted with human NCI-H1975 cells assessed as effect on serum aspartate transaminase at 1 or 4 mg/kg, ip administered for 4 weeks; type: organism-based; conditions: in vivo, 672 h
[6] = molecular target: DNA replication licensing factor MCM7 (Homo sapiens) (UniProt P33993); test: Induction of ubiquitination of MCM7 in human NCI-H1975 cells in presence of MG132 incubated for 48 hrs followed by MG132 addition and measured after 12 hrs by immunoblot analysis (reference value: 1.6); type: cell-based
[7] = molecular target: DNA replication licensing factor MCM2 (Homo sapiens) (UniProt P49736); test: Induction of ubiquitination of MCM2 in human NCI-H1975 cells in presence of MLN4924 incubated for 24 hrs followed by MLN4924 addition and measured after 6 hrs by immunoblot analysis; type: cell-based
Chain of DNA replication licensing factor MCM2 (Homo sapiens) (P49736 whole entry): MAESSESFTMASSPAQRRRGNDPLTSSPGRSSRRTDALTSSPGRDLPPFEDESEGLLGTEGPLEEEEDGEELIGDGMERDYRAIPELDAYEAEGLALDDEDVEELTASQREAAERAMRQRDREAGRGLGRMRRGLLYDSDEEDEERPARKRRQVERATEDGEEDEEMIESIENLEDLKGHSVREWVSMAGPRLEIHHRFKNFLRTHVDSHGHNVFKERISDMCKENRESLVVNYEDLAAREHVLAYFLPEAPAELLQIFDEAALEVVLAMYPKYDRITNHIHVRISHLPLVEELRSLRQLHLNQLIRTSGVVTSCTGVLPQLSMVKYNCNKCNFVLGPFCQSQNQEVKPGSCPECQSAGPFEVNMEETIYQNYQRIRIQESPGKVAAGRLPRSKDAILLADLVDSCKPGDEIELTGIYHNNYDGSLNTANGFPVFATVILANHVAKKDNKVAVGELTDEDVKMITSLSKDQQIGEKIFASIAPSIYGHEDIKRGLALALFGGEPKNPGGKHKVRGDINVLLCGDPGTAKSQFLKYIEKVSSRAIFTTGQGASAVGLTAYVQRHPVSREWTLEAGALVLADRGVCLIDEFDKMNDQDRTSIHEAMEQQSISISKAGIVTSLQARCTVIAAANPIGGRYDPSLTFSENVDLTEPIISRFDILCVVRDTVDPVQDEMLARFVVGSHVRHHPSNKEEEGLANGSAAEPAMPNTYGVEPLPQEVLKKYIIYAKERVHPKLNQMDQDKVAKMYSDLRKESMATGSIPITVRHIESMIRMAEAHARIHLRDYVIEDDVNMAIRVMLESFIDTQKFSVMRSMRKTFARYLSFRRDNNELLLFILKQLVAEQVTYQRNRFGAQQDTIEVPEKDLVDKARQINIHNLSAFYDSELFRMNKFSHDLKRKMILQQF

NCI-H1975 [8] = test: Antitumor activity against human NCI-H1975 cells xenografted in athymic nude BALB/c mouse assessed as tumor growth inhibition at 1 mg/kg, ip administered for 4 weeks relative to control; type: functional; conditions: 672 h, read-out: TGI
[9] = molecular target: T2, DNA replication licensing factor MCM3 (Homo sapiens) (UniProt P25205); test: Induction of ubiquitination of MCM3 in human NCI-H1975 cells incubated for 48 hrs by immunoblot analysis (reference value: 1); type: cell-based
T2 sequence (whole entry): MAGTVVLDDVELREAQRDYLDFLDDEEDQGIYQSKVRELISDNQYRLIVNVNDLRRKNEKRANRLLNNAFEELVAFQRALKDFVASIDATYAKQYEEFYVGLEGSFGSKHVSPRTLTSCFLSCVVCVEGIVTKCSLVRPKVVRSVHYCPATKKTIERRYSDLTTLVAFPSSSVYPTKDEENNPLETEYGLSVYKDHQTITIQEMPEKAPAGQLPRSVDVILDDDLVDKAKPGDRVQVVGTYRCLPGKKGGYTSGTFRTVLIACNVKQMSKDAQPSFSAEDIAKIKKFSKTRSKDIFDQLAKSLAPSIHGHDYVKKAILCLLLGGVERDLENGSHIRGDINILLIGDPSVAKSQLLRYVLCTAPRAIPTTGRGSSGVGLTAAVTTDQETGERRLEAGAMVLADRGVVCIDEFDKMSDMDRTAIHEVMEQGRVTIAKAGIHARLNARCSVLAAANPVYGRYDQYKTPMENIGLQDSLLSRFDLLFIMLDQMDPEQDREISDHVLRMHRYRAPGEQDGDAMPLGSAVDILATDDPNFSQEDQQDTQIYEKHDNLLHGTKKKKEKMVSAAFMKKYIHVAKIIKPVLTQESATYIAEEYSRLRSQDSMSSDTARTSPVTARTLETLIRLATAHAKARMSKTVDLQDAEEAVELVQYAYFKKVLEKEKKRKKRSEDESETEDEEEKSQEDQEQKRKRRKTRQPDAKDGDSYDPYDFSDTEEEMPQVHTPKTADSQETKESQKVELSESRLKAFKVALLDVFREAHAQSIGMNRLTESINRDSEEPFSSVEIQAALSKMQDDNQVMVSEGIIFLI

NCI-H1975 [10] = test: Antiproliferative activity against human NCI-H1975 cells assessed as reduction in cell viability incubated for 72 hrs by SRB assay; type: functional, cell-based; conditions: NCI-H1975, 72 h
[11] = molecular target: DNA replication licensing factor MCM2 (Homo sapiens) (UniProt P49736); test: Induction of ubiquitination of MCM2 in human NCI-H1975 cells at 140 nM in presence of MG132 incubated for 48 hrs followed by MG132 addition and measured after 12 hrs by immunoblot analysis; type: cell-based
NCI-H1975 [12] = test: Induction of apoptosis in human NCI-H1975 cells assessed as increase in cleaved PARP1 level at 140 nM incubated upto 72 hrs by immunoblotting analysis; type: functional, cell-based
NCI-H1975 [13] = test: Antiproliferative activity against human NCI-H1975 cells knock out SiRNA MCM2 assessed as reduction in cell viability incubated for 72 hrs by SRB assay relative to control; type: functional
[14] = Selectivity index, ratio of IC50 for human bronchial epithelial cells to IC50 for human CL1-5 cells; type: toxicity; conditions: human bronchial epithelial cells versus CL1-5 cells, read-out: Ratio IC50
NCI-H1975 [15] = test: Antitumor activity against human NCI-H1975 cells xenografted in athymic nude BALB/c mouse assessed as tumor growth at 4 mg/kg, ip administered for 4 weeks (reference value: 1217 +/- 516.6 cu.mm); type: functional
NCI-H1975 [16] = test: Cell cycle arrest in human NCI-H1975 cells assessed as replication fork at 140 nM incubated for 48 hrs by DAPI staining based immunofluorescence microscopy (reference value: 176.8 +/- 8.7); type: functional

Activity [1]: 0.4
Activity [2]: Active
Activity [6]: 0.7
Activity [7]: inactive
Activity [9]: 1.1
IC50 (NCI-H1975 [10]): 0.077 µM
Activity [11]: Active
SMILES: Cc1oc2c(c1C(=O)NCCCn1ccnc1)C(=O)c1ccccc1C2=O
Activity [3]: Non-Toxic
Activity (NCI-H1975 [4]): 38%
Activity [5]: Non-Toxic
inhibition in vivo at 1 mg/kg (NCI-H1975 [8]): 44%
Activity (NCI-H1975 [12]): Active
inhibition (INH) (NCI-H1975 [13]): 33%
selectivity ratio [14]: > 10
Activity (NCI-H1975 [15]): 518 mm3
Activity (NCI-H1975 [16]): 48.8
